Results on 2 compounds are retold here after publication PMC6957347 (Pharmacology Research & Perspectives, 2020).

As a reminder, the IC50 is the concentration at which inhibition is half-maximal.

One assay relates to rheumatoid arthritis. As to conditions: 0.5-5 mg, twice a day, PO ref 27; cited from earlier work.
In a further assay the test system is PI3Kβ/α. Kind of assay: pAKT in PC3 cell line. The class given is cell-based.
Assay [1] relates to human B and T cell cocultures. The note with it: BioMAP T:B cocultures ref 10; cited from earlier work.

For `C[C@H](Nc1ncnc2nc[nH]c12)c1cc2cccc(Cl)c2c(=O)n1-c1ccccc1` [duvelisib], the “efficacy in rheumatoid arthritis clinical trials” value in the assay on rheumatoid arthritis is recorded as “efficacy could not be demonstrated”. This compound also returned an IC50 in the assay with PI3Kβ/α of […]. `[O-][n+]1cccc(-c2nc3c(Cl)cccc3cc2[C@@H](Nc2ncnc3cccnc23)C(F)(F)F)c1` [seletalisib]: the IgG production result in assay [1] was “attenuation of IgG production”.
